Assay in all cases: NCI-60 cell line screen, 48 h
In assay [1] the test system is COLO 205.
Assay [2] concerns MDA-MB-231.
Assay [3] deals with DU-145.
Assay [4] relates to SN12C.
The test system of assay [5] is PC-3.
The test system of assay [6] is NCI/ADR-RES.
Assay [7] has as its system EKVX.
The subject of assay [8] is SK-MEL-28.
Assay [9] relates to HT-29.
Assay [10] relates to Hs-578T.
The test system of assay [11] is MCF7.
Assay [12] has as its system NCI-H23.
Assay [13] has as its system HCC 2998.
Assay [14] has as its system SK-OV-3.
The subject of assay [15] is SNB-19.
Assay [16] relates to HCT-15.
Assay [17] has as its system SR.
For assay [18], the system named is A498.
The subject of assay [19] is HCT-116.

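Five concentrations, 48 hours, 96-well plates. GI50 = concentration required for 50% inhibition of growth.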 The source made the active and inactive calls. No stated cut-off is given here; in the data, active = GI50 up to about 1.1 µM and inactive = higher.

As for `c1cc2c(cc1NC1=NCCO1)OCO2`, the GI50 in [1], in assay [2], in assay [3], in [4], in [5] and in assay [6] was > 100 µM (inactive) each time. Also, the GI50 in [7], in [8], in [9], in assay [10], in assay [11] and in [12] was > 100 µM (inactive) throughout. In addition, the GI50 in assay [13] is > 100 µM (inactive); in assay [14] it was > 100 µM (inactive); in [15] it was > 100 µM (inactive); in assay [16], above 100 µM; in assay [17], 64.3 µM (inactive); in [18], > 100 µM (inactive). Besides, the GI50 in assay [19] is > 100 µM (inactive).

Turning to `Cc1ccc(SCC(CF)OCn2cc(F)c(=O)[nH]c2=O)cc1` (stereo not drawn), the GI50 in assay [2], in assay [3], in assay [5], in assay [6], in assay [7] and in [8] was > 100 µM (inactive) in each case. The GI50 in [9], in [10], in assay [11], in assay [12], in assay [13] and in assay [14] was > 100 µM (inactive) each time. The GI50 in assay [15] is > 100 µM (inactive); in [16], above 100 µM; in assay [17], > 100 µM (inactive); in [18], > 100 µM (inactive); in assay [19] it was > 100 µM (inactive).

For the compound `NC(Cc1c2ccccc2cc2ccccc12)C(=O)O` (stereo not drawn), the GI50 in assay [1] was 38.4 µM (inactive); in assay [2], > 100 µM (inactive); in [3], 85.1 µM (inactive); in assay [4], 54.3 µM (inactive); in assay [5], > 100 µM (inactive); in assay [6], > 100 µM (inactive). In addition, the GI50 in [7], in assay [8], in assay [9], in [11], in assay [12] and in assay [13] was > 100 µM (inactive) each time. In addition, the GI50 in assay [14] was > 100 µM (inactive); in assay [15], > 100 µM (inactive); in assay [16], 68.1 µM; in [17] it was 68.9 µM (inactive); in [19] it was 83.9 µM (inactive).

As to `O=C(CCl)N1CCN(c2ccccn2)CC1`, the GI50 in assay [1] was 24.2 µM (inactive); in assay [3], > 100 µM (inactive); in assay [5] it was > 100 µM (inactive); in assay [6], 27.2 µM (inactive); in assay [7], 26.9 µM (inactive); in assay [8] it was 20 µM (inactive). In addition, the GI50 is 17.7 µM (inactive) in assay [9]; 42.8 µM (inactive) in [10]; 23.9 µM (inactive) in [11]; 19.8 µM (inactive) in assay [12]; 19.4 µM (inactive) in [13]; 46.7 µM (inactive) in assay [14]. Further, the GI50 in assay [15] is 57.1 µM (inactive); in [16], above 10 µM; in assay [17] it was 34.9 µM (inactive); in assay [18] it was 17 µM (inactive); in assay [19], 32.3 µM (inactive).

Take `N/N=C1/C(=N/O)CCc2nonc21`: the GI50 in [1], in [2], in assay [3], in assay [4], in assay [5] and in [6] was > 100 µM (inactive) each time. In addition, the GI50 in assay [7] is 41.6 µM (inactive); in assay [8] it was > 100 µM (inactive); in [9], > 100 µM (inactive); in assay [10], > 100 µM (inactive); in assay [11] it was > 100 µM (inactive); in assay [12], > 100 µM (inactive). In addition, the GI50 in assay [13] was > 100 µM (inactive); in assay [14] it was > 100 µM (inactive); in assay [15], 84.1 µM (inactive); in [16] it was above 100 µM; in assay [17], > 100 µM (inactive); in assay [19], > 100 µM (inactive).

(Values after ChEMBL document CHEMBL1201862, “PubChem BioAssay data set” (2004).)
